Laboratory results published in patent US20230141600A1, “IMIDAZOPYRAZINE DERIVATIVES” (priority 2020, published 2023).
Counter-ions that a name gives are not always drawn.

These compounds were tested on Acinetobacter baumannii ATCC17978 (assay: 90% growth inhibitory concentration (IC90) determination, antimicrobial susceptibility testing). Conditions: ATCC17978, 90% growth inhibition, Iso-Sensitest broth, OD 600 nm over 16 h, 35±2° C., read-out: ATCC 17978 IC90.
Type: cell-based
Method: Antimicrobial Susceptibility Testing:
90% Growth Inhibitory Concentration (IC90) Determination
The in vitro antimicrobial activity of the compounds was determined according to the following procedure:
The assay used a 10-points Iso-Sensitest broth medium to measure quantitatively the in vitro activity of the compounds against Acinetobacter baumannii ATCC17961 and ATCC17978.
Stock compounds in DMSO were serially twofold diluted (e.g. range from 50 to 0.097 μM final concentration) in 384 wells microtiter plates and inoculated with 49 μl the bacterial suspension in Iso-Sensitest medium to have a final cell concentration of ˜5×10^(5) CFU/ml in a final volume/well of 50 ul/well. Microtiter plates were incubated at 35±2° C.
Bacterial cell growth was determined with the measurement of optical density at λ=600 nm each minutes over a time course of 16 h. Growth inhibition was calculated during the logarithmic growth of the bacterial cells with determination of the concentration inhibiting 50% (IC50) and 90% (IC90) of the growth.
Table 1 provides the 90% growth inhibitory concentrations (IC90) in micromoles per liter of the compounds of present invention obtained against the strain Acinetobacter baumannii ATCC17978.

SMILES	IC90 [µM]
Cc1cc(Nc2nccn3c(-c4ccc(OC(F)F)cc4)cnc23)ccc1C(=O)NCCOCC[N+](C)(C)C [Example 1, 2-(2-(4-((3-(4-(difluoromethoxy)phenyl)imidazo[1,2-a]pyrazin-8-yl)amino)-2-methylbenzamido)ethoxy)-N,N,N-trimethylethanaminium Iodide]	0.658
Cc1cc(Nc2nccn3c(-c4ccc(OCC#CCN)cc4)cnc23)ccc1C(=O)N(C)CCC1CC[N+](C)(C)CC1 [Example 5, 4-[[3-[4-(4-aminobut-2-ynoxy)phenyl]imidazo[1,2-a]pyrazin-8-yl]amino]-N-[2-(1,1-dimethylpiperidin-1-ium-4-yl)ethyl]-N,2-dimethyl-benzamide Formate]	2.13
CCc1cc(Nc2nccn3c(-c4ccc(OC)c(F)c4F)cnc23)ccc1C(=O)NCCOCC[N+](C)(C)C [Example 13, 2-(2-(4-((3-(2,3-difluoro-4-methoxyphenyl)imidazo[1,2-a]pyrazin-8-yl)amino)-2-ethylbenzamido)ethoxy)-N,N,N-trimethylethanaminium Formate]	0.109
COc1ccc(-c2cnc3c(Nc4ccc(C(=O)N5CCN(CC[N+](C)(C)C)CC5)c(Br)c4)nccn23)cc1F [Example 14, 2-[4-[2-Bromo-4-[[3-(3-fluoro-4-methoxy-phenyl)imidazo[1,2-a]pyrazin-8-yl]amino]benzoyl]piperazin-1-yl]ethyl-trimethyl-ammonium 2,2,2-trifluoroacetate]	0.476
C#CCOc1ccc(-c2cnc3c(Nc4ccc(C(=O)NCCOCC[N+](C)(C)C)c(CC)c4)nccn23)c(F)c1F [Example 15, 2-[2-[[4-[[3-(2,3-Difluoro-4-prop-2-ynoxy-phenyl)imidazo[1,2-a]pyrazin-8-yl]amino]-2-ethyl-benzoyl]amino]ethoxy]ethyl-trimethyl-ammonium 2,2,2-trifluoroacetate]	0.238
COc1ccc(-c2cnc3c(Nc4ccc5c(c4)CCN(CCOCC[N+](C)(C)C)C5=O)nccn23)c(F)c1F [Example 16, 2-[2-[6-[[3-(2,3-difluoro-4-methoxy-phenyl)imidazo[1,2-a]pyrazin-8-yl]amino]-1-oxo-3,4-dihydroisoquinolin-2-yl]ethoxy]ethyl-trimethyl-ammonium Formate]	0.396
C[N+]1(CCOCCNC(=O)c2ccc(Nc3nccn4c(-c5ccc(OCC#N)c(F)c5F)cnc34)cc2Cl)CCNC(C(=O)O)C1 (stereo not shown) [Example 17, 4-[2-[2-[[2-chloro-4-[[3-[4-(cyanomethoxy)-2,3-difluoro-phenyl]imidazo[1,2-a]pyrazin-8-yl]amino]benzoyl]amino]ethoxy]ethyl]-4-methyl-piperazin-4-ium-2-carboxylic acid Formate]	1.29
Cc1cc(Nc2nccn3c(-c4ccc(OC(F)F)cc4)cnc23)ccc1C(=O)N(C)CCC1CC[N+](C)(C)CC1 [Example 19, 4-(2-(4-((3-(4-(difluoromethoxy)phenyl)imidazo[1,2-a]pyrazin-8-yl)amino)-N,2-dimethylbenzamido)ethyl)-1,1-dimethylpiperidin-1-ium Formate]	0.446
CC[N+]1(C)CCC(CCNC(=O)c2ccc(Nc3nccn4c(-c5ccc(OC)cc5)cnc34)cc2C)CC1 (stereo not shown) [Example 20, 1-ethyl-4-(2-(4-((3-(4-methoxyphenyl)imidazo[1,2-a]pyrazin-8-yl)amino)-2-methylbenzamido)ethyl)-1-methylpiperidin-1-ium Formate]	0.958

Same assay, conditions: ATCC17978, 16 h, read-out: ATCC 17978 IC90

SMILES	IC90 [µM]
Cc1cc(Nc2nccn3c(-c4ccc(OCC#N)c(F)c4F)cnc23)ccc1C(=O)N1CCC(CC[N+](C)(C)C)CC1 [Example 2, 2-[1-[4-[[3-[4-(Cyanomethoxy)-2,3-difluoro-phenyl]imidazo[1,2-a]pyrazin-8-yl]amino]-2-methyl-benzoyl]-4-piperidyl]ethyl-trimethyl-ammonium Formate]	0.214
